Data reported in the supplement of paper PMC13380429.

Key:
Settings in all cases: 72 h
Caco-2 [1] = test: cell viability relative to DMSO; higher = less toxic
Calu-3 [2] = test: as above
HepG2 [3] = test: as above
U2OS [4] = test: as above
Vero E6 [5] = test: as above
Caco-2 [6] = test: relative viability EC50 (midpoint between 100% and the lowest measured viability); higher = less toxic
Calu-3 [7] = test: as above
U2OS [8] = test: as above
Vero E6 [9] = test: as above
Caco-2 [10] = test: drug sensitivity score (DSS) for viability; higher = more toxic; extreme values may be limits of the assay
Calu-3 [11] = test: as above
HepG2 [12] = test: as above
U2OS [13] = test: as above
Vero E6 [14] = test: as above
HepG2 [15] = test: relative viability EC50 (midpoint between 100% and the lowest measured viability); higher = less toxic

Structure (SMILES)	cell viability (Caco-2 [1]; 1 nM) [%]	cell viability (Caco-2 [1]; 10 nM) [%]	cell viability (Caco-2 [1]; 100 nM) [%]	cell viability (Caco-2 [1]; 1000 nM) [%]	cell viability (Caco-2 [1]; 10000 nM) [%]	cell viability (Calu-3 [2]; 1 nM) [%]	cell viability (Calu-3 [2]; 10 nM) [%]	cell viability (Calu-3 [2]; 100 nM) [%]	cell viability (Calu-3 [2]; 1000 nM) [%]	cell viability (Calu-3 [2]; 10000 nM) [%]	cell viability (HepG2 [3]; 1 nM) [%]	cell viability (HepG2 [3]; 10 nM) [%]	cell viability (HepG2 [3]; 100 nM) [%]	cell viability (HepG2 [3]; 1000 nM) [%]	cell viability (HepG2 [3]; 10000 nM) [%]	cell viability (U2OS [4]; 1 nM) [%]	cell viability (U2OS [4]; 10 nM) [%]	cell viability (U2OS [4]; 100 nM) [%]	cell viability (U2OS [4]; 1000 nM) [%]	cell viability (U2OS [4]; 10000 nM) [%]	cell viability (Vero E6 [5]; 1 nM) [%]	cell viability (Vero E6 [5]; 10 nM) [%]	cell viability (Vero E6 [5]; 100 nM) [%]	cell viability (Vero E6 [5]; 1000 nM) [%]	cell viability (Vero E6 [5]; 10000 nM) [%]	relative viability EC50 (Caco-2 [6]) [µM]	relative viability EC50 (Calu-3 [7]) [µM]	relative viability EC50 (U2OS [8]) [µM]	relative viability EC50 (Vero E6 [9]) [µM]	drug sensitivity score (Caco-2 [10])	drug sensitivity score (Calu-3 [11])	drug sensitivity score (HepG2 [12])	drug sensitivity score (U2OS [13])	drug sensitivity score (Vero E6 [14])	relative viability EC50 (HepG2 [15]) [µM]
CCc1nn(CCCN2CCN(c3cccc(Cl)c3)CC2)c(=O)n1CCOc1ccccc1 [nefazodone]	96.4	95.3	100	99.8	86.3	103	94.6	96.7	96.3	96.8	93.2	91.5	95.7	97.6	70.8	106	100	101	99	97.4	95.6	101	97.5	102	96.6	> 10	> 10	> 10	> 10	0.1	0	1.6	0	0	–
CC(C)[C@H](CO)Nc1nc(Nc2cc(N)cc(Cl)c2)c2ncn(C(C)C)c2n1 [aminopurvalanol-a]	101	97	98.5	100	38.2	98.4	87.7	101	99.3	47	101	99.3	93.8	105	34.6	94	99.7	101	96.5	34	99.7	102	96.9	95.3	53.3	3.2	3.07	2.75	–	3.3	2.9	3.2	4.1	3.2	3.54
CN1[C@@H]2CC[C@H]1C[C@@H](OC(c1ccc(F)cc1)c1ccc(F)cc1)C2 [3-alpha-bis-(4-fluorophenyl)-methoxytropane]	95.5	90.9	92.6	102	102	109	106	99.5	126	86.5	102	96.3	92	93.6	74.1	102	96.1	101	96.8	93.1	102	103	100	97.9	86.1	> 10	> 10	> 10	> 10	0	0	1.6	0	0.3	–
O=C(O)c1cc(/N=N/c2ccc(S(=O)(=O)Nc3ccccn3)cc2)ccc1O [sulfasalazine]	108	99.5	89.9	96.6	112	101	102	102	104	91.5	–	–	–	–	–	98.6	99.1	97.4	102	98.1	104	103	107	98.7	97.6	> 10	> 10	> 10	> 10	0	0	–	0	0	–
CCCS(=O)(=O)Nc1ccc(F)c(C(=O)c2c[nH]c3ncc(-c4ccc(Cl)cc4)cc23)c1F [vemurafenib]	109	97.3	117	107	77	102	105	106	95.8	90.1	113	103	98.3	107	54.5	96.6	100	95.2	104	86.8	106	104	100	111	91.7	> 10	> 10	> 10	> 10	0.5	0	1.9	0.1	0	–
CC12CC3CC(C)(C1)CC(N)(C3)C2 [memantine]	102	91.8	90.3	96.9	96.9	101	98.8	98.3	99.7	87.1	–	–	–	–	–	97.3	96.4	96.6	99.6	98.9	106	99.1	105	102	96.6	> 10	> 10	> 10	> 10	0	0.1	–	0	0	–
O=C(CN1C(=O)C2(CCCC2)NC[C@H]1c1cc(F)cc(F)c1)Nc1ccc2c(c1)C[C@@]1(C2)C(=O)Nc2ncccc21 [MK-3207]	99	101	93	106	88.8	96.6	92.9	98.2	93.4	109	91.2	106	101	113	101	104	101	102	96.8	101	–	–	–	–	–	> 10	> 10	> 10	–	0	0	0	0	–	> 10
CC[C@H]1OC(=O)[C@H](C)[C@@H](O[C@H]2C[C@@](C)(OC)[C@@H](O)[C@H](C)O2)[C@H](C)[C@@H](O[C@@H]2O[C@H](C)C[C@H](N(C)C)[C@H]2O)[C@](C)(OC)C[C@@H](C)C(=O)[C@H](C)[C@@H](O)[C@]1(C)O [clarithromycin]	102	103	112	100	90.7	93.1	107	94.5	104	99.5	104	104	108	98	99.8	99.3	102	102	96.1	98.7	–	–	–	–	–	> 10	> 10	> 10	–	0	0	0	0	–	> 10
O=C(O)/C=C/c1ccc(O)cc1 [naringeninic-acid]	88	91.5	86.1	104	85.4	93.2	109	100	109	108	92	108	97.5	96.8	94	102	103	98.9	106	101	–	–	–	–	–	> 10	> 10	> 10	–	0.1	0	0	0	–	> 10
COCCOC(=O)C1=C(C)NC(C)=C(C(=O)OC(C)C)C1c1cccc([N+](=O)[O-])c1 (stereo not drawn) [nimodipine]	98.4	93.4	87.8	98.1	91.5	101	98.2	104	96.7	97.8	–	–	–	–	–	97.2	97.8	104	97.8	95.9	98.6	100	103	102	88.1	> 10	> 10	> 10	> 10	0	0	–	0	0	–
Cc1c(OCC(F)(F)F)ccnc1C[S+]([O-])c1nc2ccccc2[nH]1 (stereo not drawn) [lansoprazole]	99.7	94.3	96.6	97	92.6	93.1	107	95.1	107	92.3	104	96.8	96.1	92.1	96.5	94.8	101	93	93.8	93.8	–	–	–	–	–	> 10	> 10	> 10	–	0	0	0	0	–	> 10
CCCCCCCCCCCCCC(=O)[O-].CCCCCCCCCCCCCC(=O)[O-].N[C@@H]1CCCC[C@H]1N.[Pt+2] [miriplatin]	102	93.5	98.1	91.2	104	90.9	101	104	99.2	87.4	105	101	106	97.1	92.1	100	97.7	99.2	95.4	99.3	–	–	–	–	–	> 10	> 10	> 10	–	0	0.1	0	0	–	> 10
C=C1CCN([C@H](C)[C@](O)(Cn2cncn2)c2ccc(F)cc2F)CC1 [efinaconazole]	96.9	98.3	100	91.8	78.3	88	99.3	94.7	96.9	91.4	102	98.3	92.4	95.9	91.5	99.2	101	96.2	103	96.1	–	–	–	–	–	> 10	> 10	> 10	–	1.7	0	0	0	–	> 10
CC(CCc1ccccc1)NC(C)C(O)c1ccc(O)cc1 (stereo not drawn) [buphenine]	90.4	102	92.2	92.5	90	108	106	99.3	104	110	98.8	100	95.9	89.7	91.3	101	100	100	94.6	99.1	–	–	–	–	–	> 10	> 10	> 10	–	0	0	0.1	0	–	> 10
O=C(O)/C=C/c1ccc(-c2ccc(O)c(C34CC5CC(CC(C5)C3)C4)c2)cc1 [adarotene]	87.5	96.7	96.8	38	35.3	96.9	103	98.4	56.5	24.4	97.9	94.6	95.7	29.1	27.1	93.9	98.5	101	14.5	11.8	94	104	102	53.4	54.4	0.306	0.854	0.347	–	12	9.4	13.7	15.5	8.3	0.285
COc1ccc(Cc2nc(O)c3c(C)nc([C@@H](CCCc4ccccc4)[C@@H](C)O)n3n2)cc1OC [BAY-60-7550]	95.7	101	95.5	92.4	93.1	103	100	118	96.6	101	–	–	–	–	–	101	106	101	103	94.6	103	105	98.5	98.1	95.2	> 10	> 10	> 10	> 10	0	0	–	0	0	–
